Laboratory results taken from patent publication US6713057B1, “Compositions and methods for modulating serum cholesterol” (The Johns Hopkins University, priority 1999, dated 2004).

Key:
[1] = test system: SREBP-1; assay: SREBP-1 proteolysis (maturation) assay, Western immunoblot of nuclear fractions, HH-25 hepatocytes; assay type: cell-based, human; conditions: for increase in mass of the mature form of SREBP-1: sterol supplemented media
Procedure: FIGS. 2A-2C illustrate effects of TNF-α sphingomyelinase and C2-ceramide on the kinetics of SREBP-1 maturation—FIGS. 2A-2C is explained in more detail as follows: Cells were maintained in media supplemented with 1 μg/ml 25-hydroxy cholesterol and 15 μg/ml cholesterol for 24 hours before the experiment. The cells were treated for the indicated time as described in materials and methods. The cells were then harvested in PBS, pelleted and frozen. Lysis and nuclear fractionation were performed as described. Nuclear fractions (50 μg of protein) were electrophoresed on a 7.5% polyacrylamide gel and transferred to a PVDF membrane. Western blotting was performed as described. Band intensity was quantified via densitometry. Error bars represent ±one standard deviation from the mean. 2A) The kinetics of SREBP maturation as measured by the increase in mature SREBP-1 are plotted. Fold increase was calculated by comparing each time point to the corresponding control value (TNF-α is represented by stippled bars, bacterial sphingomyelinase is represented by light gray bars and C2-ceramide by the dark bars.) 2B) Cells were treated with TNF-α (10 ng/ml) and prepared as described above. The bands corresponding to the precursor and mature forms of SREBP-1 were quantified and their ratio plotted. 2C) Representative Western blots from which numerical data was derived. Incubation time is indicated above and applies to all conditions. The membranes were exposed to film for 15 seconds. P and M denote the precursor and mature forms of SREBP-1 respectively.
FIGS. 3A-3C show effects of TNF-α, sphingomyelinase and C2-ceramide concentration on SREBP-1 maturation—The FIGS. 3A-3C are explained in more detail as follows. […] Nuclear pellets were prepared and electrophoresed (50 μg of protein). The bands corresponding to the precursor and mature forms of SREBP-1 were quantified. The precursor to mature ratios were normalized to a single control to facilitate comparison. The control ratio was arbitrarily assigned a value of 1. A Unit of sphingomyelinase activity hydrolyzes 1.0 μmol of sphingomyelin per minute at 37° C. FIG. 3A (ng/ml TNF-α); FIG. 3B (mUnits of sphingomyelinase); FIG. 3C (micromolar C2-ceramide).
HH-25 cells were grown in alpha-minimal essential media supplemented with 100 units/ml penicillin, 100 µg/ml streptomycin, […], 0.1 μM selenium, 5.5 μg/ml transferrin, 0.5 μg/ml linoleic acid and 10% fetal bovine serum (media A). The cells were incubated in serum free F10 media for 30 to 60 minutes prior to initiating treatment with TNF-α, C2-ceramide or sphingomyelinase.
Following treatment, the cells were washed with 5 ml of PBS and pelleted at 1500×g for 10 minutes at 4° C. The pellet was stored at −70° C. and lysed in 0.5 ml buffer A (10 mM HEPES pH 7.4, 5 mM EDTA, 0.25 mM EGTA, 50 mM NaF, 7 mM β-mercaptoethanol, 0.35M sucrose, 0.1% NP-40 and protease inhibitors 1 mM PMSF, 2 μg/ml aprotinin, 10 μg/ml leupeptin and 5 μg/ml pepstatin). The lysate was centrifuged at 12,000×g for 15 minutes at 4° C. to prepare a nuclear fraction. The protein concentration of these samples was determined by the method of Lowry et al. al. (19).
50 μg of nuclear protein was separated by gel electrophoresis on a 7.5% polyacrylamide gel. Gels were calibrated by high range molecular weight markers (Bio-Rad product #161-0303, New York, N.Y.) which were transferred to a polyvinyl difluoride (PVDF) membrane and visualized with coomassie staining. Rabbit polyclonal antibodies against SREBP-1 were used at 0.5 μg/ml according to the instructions of the manufacturer. The antibody was visualized with horseradish peroxidase conjugated anti-rabbit IgG made in donkey (Amersham) using the Enhanced Chemiluminescence (ECL) Western Blotting Detection System Kit (Amersham). PVDF membranes were exposed to Hyperfilm ECL (Amersham) for the indicated time. Immunoblots were quantified via densitometry performed on a PDI densitometer scanner (model 20J7) coupled to a SPARC IRC workstation.

[2] = test system: HH-25 cells; assay: DNA laddering assay (apoptosis) in hepatocytes; conditions: 1 hour treatment, concentrations as in maturation studies, refed 6 hours
Procedure: Cells were treated with either TNF-α, sphingomyelinase or C2-ceramide for 1 hour at concentrations identical to those used in the SREBP-1 maturation studies. The cells were then washed twice with minimal essential medium and refed with media A for 6 hours. […] Genomic DNA was electrophoresed and stained with ethidium bromide.

[3] = test system: SREBP-1; assay: Electrophoretic mobility shift assay, SREBP-1 binding to SRE probe; assay type: cell-based, human; conditions: for amount of probe bound (electrophoretically retarded) by mature SREBP-1: TNF-α 10 ng/ml, sphingomyelinase 100 mUnits, C2-ceramide 10 μM
Procedure: FIGS. 6A-6D show electrophoretic mobility shift assays. FIGS. 6A-D are explained in more detail as follows. Cells were maintained in sterol supplemented media. Nuclear pellets were prepared and assayed as described in materials and methods. Probe that has been bound by mature SREBP-1 is indicated as “Bound”. Unbound probe is indicated as “Free”. The kinetics (in minutes) of SREBP-1 binding to the probe in response to treatment with (FIG. 6A). TNF-α (10 ng/ml), (FIG. 6B) sphingomyelinase (100 mUnits) and (FIG. 6C) C2-ceramide ([…]). (FIG. 6D). The cells were treated with either TNF-α (10 ng/ml), sphingomyelinase (100 mUnits) or C2-ceramide (10 μM) for 15 minutes. Supershift assays were then performed with antibodies raised against the DNA binding domain of SREBP-1. The presence or absence of antibody is indicated by (+) and (−) respectively. Pre-immune IgG was used as a control.
Gel mobility shift assays were performed as follows. Each 20 μl reaction mixture contained 8-10 μg of nuclear protein plus a α-[^32P]-labeled 25-base pair oligonucleotide probe containing the SREBP-binding site (14) in binding buffer (10 mM Hepes, pH 7.5, 0.5 mM spermidine, 0.15 mM EDTA, 10 mM dithiothreitol, 0.35 mM sucrose). The reaction mixture was incubated at room temperature for 15 min and loaded directly onto a 6.5% polyacrylamide (49:0.6 acrylamide/bisacrylamide) gel in a buffer of 25 mM Tris borate (pH 8.0), 0.25 mM EDTA. In some experiments, antisera specific for SREBP or preimmune sera were added to reaction mixtures to determine the composition of protein-probe complexes. For these “supershift” assays, extracts were incubated with 1 μl of preimmune sera or an equal volume of anti-SREBP antisera at 4° C. for 30 min prior to addition of α-[^32P]-labeled probe. In all experiments, proteins were separated by electrophoresis at 200 V for 2 h at room temperature. Gels were dried and exposed to Kodak XAR film with intensifying screens. Assays were repeated with nuclear extracts obtained from three unique experiments and evaluated by phosphoimage analysis to ensure reproducibility of results.

Compound | Emax ([1]; Homo sapiens, Hepatocyte, 1 μM of C2-ceramide, read-out: percent of maximal effect on SREBP-1 maturation) | persistence of the increase in mature SREBP-1 ([1]; after 60 minutes) | induction of apoptosis (160 bp DNA ladder) [2] | rate of accumulation of active, nuclear SREBP-1 compared with TNF-α or sphingomyelinase [3] | amount of probe bound (electrophoretically retarded) by mature SREBP-1 [3] | concentration giving maximal effect on SREBP-1 maturation [1] | dependence of extent of SREBP-1 maturation on concentration [1] | maximal decrease in the precursor to mature SREBP-1 ratio ([1]; 45 minutes after TNF-α (10 ng/ml) was added) | increase in mass of the mature form of SREBP-1 ([1]; after 5 minutes of incubation) | increase in mass of the mature form of SREBP-1 ([1]; after 15 minutes of treatment)
CCCCCCCCCCCCC/C=C/[C@@H](O)[C@H](CO)NC(C)=O [C2-ceramide, N-acetylsphingosine, reference compound] | 81% | persistent elevation | did not induce apoptosis | more rapid accumulation | increases | – | – | – | – | –
TNF-α | – | – | did not induce apoptosis | – | increases with time | 10 ng/mL | did not vary appreciably with concentration | 1.5 fold | 2 fold | 3 fold
